Measured values reported in ChEMBL document CHEMBL1148180, “The isolation and structural elucidation of four novel triterpene lactones, pseudolarolides A, B, C, and D, from Pseudolarix kaempferi” (J Nat Prod, 1993).
Converted amounts (≈) assume the structure as drawn. The source made the active and inactive calls. No cut-off for these calls is given here.

How the values were obtained:
P388 = test: Cytotoxicity against mouse P388 cells; assay type: functional, cell-based
HCT-8 = test: Cytotoxicity against human HCT8 cells; assay type: functional, cell-based
A549 = test: Cytotoxicity against human A549 cells; assay type: functional, cell-based
KB = test: Cytotoxicity against human KB cells; assay type: functional, cell-based
Human alphaherpesvirus 2 = test: Antiviral activity against HSV2 in african green monkey Vero cells assessed as inhibition of viral plaque formation; assay type: functional, organism-based
TE-671 = test: Cytotoxicity against human TE671 cells; assay type: functional, cell-based

Row | Structure (SMILES) | EC50 (P388; Mus musculus, P388, read-out: EC50) [µg/mL] | EC50 (HCT-8; Homo sapiens, HCT-8, read-out: EC50) [µg/mL] | EC50 (A549; Homo sapiens, A549, read-out: EC50) [µg/mL] | EC50 (KB; Homo sapiens, KB, read-out: EC50) [µg/mL] | Activity (Human alphaherpesvirus 2) | EC50 (TE-671) | EC50 (P388; p388) | EC50 (HCT-8; hct-8) | EC50 (A549; a549) | EC50 (KB; kb)
1 | CC1=C[C@]2(C[C@@H](C)[C@H]3[C@@H](C[C@@]4(C)[C@@H]5CC[C@H]6C(C)(C)C(=O)CC[C@@]67C[C@@]57CC[C@]34C)O2)OC1=O [PSEUDOLAROLIDE B] | 0.79 (≈ 1.69 µM) | 0.73 (≈ 1.56 µM) | 0.67 (≈ 1.44 µM) | 0.49 (≈ 1.05 µM) | Active | Not Active | – | – | – | –
2 | C[C@@H]1C[C@]2(C[C@@H](C)[C@H]3[C@@H](C[C@@]4(C)[C@@H]5CC[C@H]6C(C)(C)OC(=O)CC[C@@]67C[C@@]57CC[C@]34C)O2)OC1=O [PSEUDOLAROLIDE D] | – | – | – | – | – | Not Active | Not Active | Not Active | Not Active | Not Active
3 | C[C@@H]1C[C@]2(C[C@@H](C)[C@H]3[C@@H](C[C@@]4(C)[C@@H]5CC[C@H]6C(C)(C)C(=O)CC[C@@]67C[C@@]57CC[C@]34C)O2)OC1=O [PSEUDOLAROLIDE A] | – | – | – | – | Active | Not Active | Not Active | Not Active | Not Active | Not Active
4 | COC(=O)CC[C@]12C[C@]13CC[C@]1(C)[C@H]4[C@H](C)C[C@]5(C[C@@H](C)C(=O)O5)O[C@@H]4C[C@@]1(C)[C@@H]3CC[C@H]2C(C)(C)O [PSEUDOLAROLIDE C] | – | – | – | – | – | Not Active | Not Active | Not Active | Not Active | Not Active
